Numbers after ± are expanded uncertainties.
Details: Liquid, Vibrating tube method

CN(C)C=O [dimethylformamide]
Details | mass density [kg/m3]
313.12 K, 1008 kPa | 930.41 ± 0.41
313.12 K, 2010 kPa | 931.09 ± 0.41
313.12 K, 3012 kPa | 931.73 ± 0.41
313.12 K, 4008 kPa | 932.38 ± 0.41
313.12 K, 5004 kPa | 933.04 ± 0.41
313.12 K, 6002 kPa | 933.68 ± 0.41
313.12 K, 7002 kPa | 934.32 ± 0.41
313.12 K, 8004 kPa | 934.97 ± 0.41
313.12 K, 9000 kPa | 935.62 ± 0.41
313.12 K, 10004 kPa | 936.27 ± 0.41
313.12 K, 11004 kPa | 936.89 ± 0.41
313.12 K, 12004 kPa | 937.51 ± 0.41
313.12 K, 13005 kPa | 938.14 ± 0.41
313.12 K, 14007 kPa | 938.78 ± 0.41
313.12 K, 15002 kPa | 939.37 ± 0.41
313.12 K, 16012 kPa | 940 ± 0.41
313.12 K, 17009 kPa | 940.59 ± 0.41
313.12 K, 18015 kPa | 941.19 ± 0.41
313.12 K, 19010 kPa | 941.79 ± 0.41
313.12 K, 20013 kPa | 942.42 ± 0.41
313.12 K, 21009 kPa | 942.99 ± 0.41
313.12 K, 22011 kPa | 943.58 ± 0.41
313.12 K, 23019 kPa | 944.17 ± 0.41
313.12 K, 24013 kPa | 944.75 ± 0.41
313.12 K, 25011 kPa | 945.35 ± 0.41
323.06 K, 1014 kPa | 920.89 ± 0.41
323.06 K, 2007 kPa | 921.59 ± 0.41
323.06 K, 3026 kPa | 922.27 ± 0.41
323.06 K, 4006 kPa | 922.95 ± 0.41
323.06 K, 5016 kPa | 923.62 ± 0.41
323.06 K, 6010 kPa | 924.3 ± 0.41
323.06 K, 7006 kPa | 924.99 ± 0.41
323.06 K, 8010 kPa | 925.64 ± 0.41
323.06 K, 9012 kPa | 926.32 ± 0.41
323.06 K, 10014 kPa | 926.99 ± 0.41
323.06 K, 11011 kPa | 927.65 ± 0.41
323.06 K, 12013 kPa | 928.31 ± 0.41
323.06 K, 13007 kPa | 928.97 ± 0.41
323.06 K, 14011 kPa | 929.62 ± 0.41
323.06 K, 15008 kPa | 930.29 ± 0.41
323.06 K, 16014 kPa | 930.92 ± 0.41
323.06 K, 17004 kPa | 931.54 ± 0.41
323.06 K, 18006 kPa | 932.19 ± 0.41
323.06 K, 19006 kPa | 932.82 ± 0.41
323.06 K, 20005 kPa | 933.44 ± 0.41
323.06 K, 21002 kPa | 934.07 ± 0.42
323.06 K, 22013 kPa | 934.7 ± 0.42
323.06 K, 23015 kPa | 935.31 ± 0.42
323.06 K, 24008 kPa | 935.92 ± 0.42
323.06 K, 25012 kPa | 936.53 ± 0.42
333 K, 1008 kPa | 911.34 ± 0.41
333 K, 2018 kPa | 912.08 ± 0.41
333 K, 3006 kPa | 912.78 ± 0.41
333 K, 4005 kPa | 913.51 ± 0.41
333 K, 5005 kPa | 914.23 ± 0.41
333 K, 6008 kPa | 914.97 ± 0.41
333 K, 7003 kPa | 915.68 ± 0.41
333 K, 8009 kPa | 916.39 ± 0.41
333 K, 9010 kPa | 917.11 ± 0.41
333 K, 10008 kPa | 917.81 ± 0.41
333 K, 11008 kPa | 918.51 ± 0.41
333 K, 12008 kPa | 919.2 ± 0.41
333 K, 13013 kPa | 919.9 ± 0.41
333 K, 14006 kPa | 920.57 ± 0.41
333 K, 15007 kPa | 921.24 ± 0.41
333 K, 16011 kPa | 921.92 ± 0.42
333 K, 17019 kPa | 922.59 ± 0.42
333 K, 18010 kPa | 923.27 ± 0.42
333 K, 19004 kPa | 923.91 ± 0.42
333 K, 20012 kPa | 924.58 ± 0.42
333 K, 21005 kPa | 925.24 ± 0.42
333 K, 22005 kPa | 925.88 ± 0.42
333 K, 23014 kPa | 926.52 ± 0.42
333 K, 24009 kPa | 927.19 ± 0.42
333 K, 25009 kPa | 927.83 ± 0.42
342.86 K, 1028 kPa | 901.52 ± 0.41
342.86 K, 2020 kPa | 902.3 ± 0.41
342.86 K, 3015 kPa | 903.09 ± 0.41
342.86 K, 4002 kPa | 903.84 ± 0.41
342.86 K, 5035 kPa | 904.63 ± 0.41
342.86 K, 6026 kPa | 905.39 ± 0.41
342.86 K, 7013 kPa | 906.13 ± 0.41
342.86 K, 8017 kPa | 906.89 ± 0.41
342.86 K, 9024 kPa | 907.66 ± 0.41
342.86 K, 10012 kPa | 908.38 ± 0.41
342.86 K, 11048 kPa | 909.14 ± 0.41
342.86 K, 11999 kPa | 909.83 ± 0.41
342.86 K, 13018 kPa | 910.6 ± 0.42
342.86 K, 14029 kPa | 911.32 ± 0.42
342.86 K, 15007 kPa | 912.03 ± 0.42
342.86 K, 15994 kPa | 912.71 ± 0.42
342.86 K, 17041 kPa | 913.47 ± 0.42
342.86 K, 18012 kPa | 914.16 ± 0.42
342.86 K, 19006 kPa | 914.85 ± 0.42
342.86 K, 20042 kPa | 915.55 ± 0.42
342.86 K, 21025 kPa | 916.22 ± 0.42
342.86 K, 22008 kPa | 916.9 ± 0.42
342.86 K, 23079 kPa | 917.63 ± 0.42
342.86 K, 24008 kPa | 918.25 ± 0.42
342.86 K, 25017 kPa | 918.93 ± 0.42
352.8 K, 1040 kPa | 891.76 ± 0.41
352.8 K, 2009 kPa | 892.57 ± 0.41
352.8 K, 3011 kPa | 893.41 ± 0.41
352.8 K, 4020 kPa | 894.22 ± 0.41
352.8 K, 5050 kPa | 895.06 ± 0.41
352.8 K, 6060 kPa | 895.78 ± 0.41
352.8 K, 6996 kPa | 896.53 ± 0.41
352.8 K, 8008 kPa | 897.34 ± 0.41
352.8 K, 9034 kPa | 898.16 ± 0.41
352.8 K, 10019 kPa | 898.93 ± 0.42
352.8 K, 11043 kPa | 899.73 ± 0.42
352.8 K, 11998 kPa | 900.45 ± 0.42
352.8 K, 13028 kPa | 901.24 ± 0.42
352.8 K, 14015 kPa | 901.99 ± 0.42
352.8 K, 15028 kPa | 902.74 ± 0.42
352.8 K, 16000 kPa | 903.48 ± 0.42
352.8 K, 17011 kPa | 904.23 ± 0.42
352.8 K, 17999 kPa | 904.96 ± 0.42
352.8 K, 19044 kPa | 905.73 ± 0.42
352.8 K, 20050 kPa | 906.43 ± 0.42
352.8 K, 21038 kPa | 907.16 ± 0.42
352.8 K, 21955 kPa | 907.8 ± 0.42
352.8 K, 23009 kPa | 908.57 ± 0.42
352.8 K, 23996 kPa | 909.27 ± 0.43
352.8 K, 25056 kPa | 910.04 ± 0.43
362.67 K, 1058 kPa | 882.04 ± 0.41
362.67 K, 2038 kPa | 882.89 ± 0.41
362.67 K, 3044 kPa | 883.77 ± 0.41
362.67 K, 4027 kPa | 884.62 ± 0.41
362.67 K, 5068 kPa | 885.54 ± 0.41
362.67 K, 6036 kPa | 886.37 ± 0.41
362.67 K, 7025 kPa | 887.22 ± 0.41
362.67 K, 8027 kPa | 888.03 ± 0.42
362.67 K, 9045 kPa | 888.9 ± 0.42
362.67 K, 10021 kPa | 889.71 ± 0.42
362.67 K, 11024 kPa | 890.55 ± 0.42
362.67 K, 11996 kPa | 891.3 ± 0.42
362.67 K, 13061 kPa | 892.19 ± 0.42
362.67 K, 14027 kPa | 892.95 ± 0.42
362.67 K, 15025 kPa | 893.73 ± 0.42
362.67 K, 15987 kPa | 894.49 ± 0.42
362.67 K, 17050 kPa | 895.32 ± 0.42
362.67 K, 18009 kPa | 896.08 ± 0.42
362.67 K, 19041 kPa | 896.85 ± 0.42
362.67 K, 20032 kPa | 897.62 ± 0.43
362.67 K, 21035 kPa | 898.36 ± 0.43
362.67 K, 22014 kPa | 899.1 ± 0.43
362.67 K, 23018 kPa | 899.87 ± 0.43
362.67 K, 24007 kPa | 900.58 ± 0.43
362.67 K, 25016 kPa | 901.35 ± 0.43

Source: the NIST ThermoML archive (doi:10.1021/je050050p)
